Measured values: article PMC8786148, “The effects of magainin 2-derived and rationally designed antimicrobial peptides on Mycoplasma pneumoniae” (PLoS ONE, 2022)
Marks after values point to notes of the source that are not given here.

Tests used:
[1] = test system: Mycoplasma pneumoniae M129-B7; assay: Colorimetric and biofilm assays, strain M129-B7; assay type: cell-based
Mycoplasma pneumoniae FH [2] = assay: Killing assay, strain FH; conditions: for CFU/mL after treatment, killing assay: 3 d at 37°C
[3] = test system: Mycoplasma pneumoniae Bru; assay: Killing assay, strain Bru; conditions: 3 days; for Titre (CFU/mL), killing assay: initial 10^6 CFU/mL, triplicate, mean
[4] = test system: Mycoplasma pneumoniae Mac; assay: Killing assay, strain Mac; conditions: 3 days; for Titre (CFU/mL), killing assay: initial 10^6 CFU/mL, triplicate, mean
[5] = test system: Mycoplasma pneumoniae M52; assay: Killing assay, strain M52; conditions: 3 days; for Titre (CFU/mL), killing assay: initial 10^6 CFU/mL, triplicate, mean
[6] = test system: Mycoplasma pneumoniae M129-B7; assay: Killing assay, strain M129-B7; conditions: 3 days; for Titre (CFU/mL), killing assay: initial 10^6 CFU/mL, triplicate, mean
[7] = test system: Mycoplasma pneumoniae Bru; assay: Colorimetric and biofilm assays, strain Bru
[8] = test system: Mycoplasma pneumoniae Mac; assay: Colorimetric and biofilm assays, strain Mac
[9] = test system: Mycoplasma pneumoniae M52; assay: Colorimetric and biofilm assays, strain M52
Mycoplasma pneumoniae FH [10] = assay: Colorimetric assay (absorbance at 560 nm), strain FH; conditions: initial 10^5 CFU/mL, 0% CO2, 6-8 days at 37°C, absorbance 560 nm
Mycoplasma pneumoniae FH [11] = assay: Biofilm assay (crystal violet, absorbance at 550 nm), strain FH; conditions: initial 10^5 CFU/mL, 0% CO2, 6-8 days at 37°C
[12] = test system: M. pneumoniae strains FH, M52, Mac, Bru, and M129-B7; assay: Propidium iodide (PI) uptake assay, membrane disruption; assay type: cell-based, Mycoplasma pneumoniae; conditions: five strains; 10 μmol/L AMP; PI 5 μg/mL in PBS; read every 2 min up to 20 min; triplicate
Procedure: We performed the PI uptake assays based on the previously described method with modification for M. pneumoniae. M. pneumoniae strains FH, M52, Mac, Bru, and M129-B7 were cultured as described above. Briefly, the 90 mL culture was done in PPLO-based medium for 6 days to observe the medium color change from red to yellow. The mycoplasma in the culture medium was centrifuged at 11,740g for 30 min at 4°C, and the precipitation was suspended in 20 mL phosphate buffered saline (PBS) by passing through a 60 mm-length 25-gauge needle (Top Corporation, Tokyo, Japan) three times. The suspension was centrifuged again at 11,740g for 30 min at 4°C, and 2.25 mL PBS was added to the precipitation. The 2× mycoplasma suspension was prepared by passing through a 60 mm-length 25-gauge needle five times. When using heat-killed M. pneumoniae (HKMp), the 2× suspension was heated at 95°C for 10 min. The 2× PI assay reaction mix based on PBS containing 20 μmol/L of an antimicrobial peptide or saline, and 10 μg/mL PI (Dojindo, Tokyo, Japan). Each assay was performed with a 96-well black flat-bottomed plate (PerkinElmer, Waltham, MA, USA) using a final cell volume of 100 μL prepared by mixing 2× mycoplasma suspension and 2× PI assay reaction mix at 1:1 in volume ratio. The intercalation fluorescence of PI was measured by using an Infinite 200 Pro F Plex microplate reader (Tecan, Zürich, Switzerland) every 2 min, with an excitation filter at 535 nm (half width: 25 nm) and an emission filter at 620 nm (half width: 20 nm). The averages and standard deviations of the fluorescent intensities was calculated, and normalised by an average fluorescence between 10 and 20 min of HKMp as 100% relative fluorescence, and by a minimum average fluorescence between 0 and 20 min of whole data as 0% relative fluorescence.

Staphylococcus aureus = test system: Staphylococcus aureus; design: method as in PMID 28789896, PMID 31303986, PMID 33369262; conditions: previously reported; cited from earlier work
[13] = test system: Staphylococcus epidermidis; design: method as in PMID 28789896, PMID 31303986, PMID 33369262; conditions: previously reported; cited from earlier work
Escherichia coli = test system: Escherichia coli; design: method as in PMID 28789896, PMID 31303986, PMID 33369262; conditions: previously reported; cited from earlier work
Pseudomonas aeruginosa = test system: Pseudomonas aeruginosa; design: method as in PMID 28789896, PMID 31303986, PMID 33369262; conditions: previously reported; cited from earlier work
[14] = test system: four strains of M. pneumoniae; assay: Biofilm assay, four strains taken together; conditions: four strains (Bru, M129-B7, Mac, M52); inferred from enhanced biofilm production below 30 μmol/L
[15] = colorimetric and biofilm assays
[16] = up to 30 μmol/L, Shirley-Williams test

## C[C@@H]1CN(c2c(F)c(N)c3c(=O)c(C(=O)O)cn(C4CC4)c3c2F)C[C@H](C)N1 [Sparfloxacin]
[1]; strain M129-B7, colorimetric and biofilm assays
  Concentration that completely attenuated the growth: 0.25 µg/mL
Mycoplasma pneumoniae FH [2]; 1 h treatment, SPFX 0.0625-0.25 μg/mL, AMPs 30 μmol/L, S3 Fig
  Change in CFU, killing assay with 1 h incubation: no change in the CFU values
Mycoplasma pneumoniae FH [2]; initial 10^6 CFU/mL, 3 d incubation, p < 0.005
  Concentration with significant difference in CFU, killing assay: above 0.0625 μg/mL
Mycoplasma pneumoniae FH [2]; sparfloxacin 0.0156 μg/mL, initial 10^6 CFU/mL, triplicate, mean
  CFU/mL after treatment, killing assay: 6.57×10^6 CFU/mL
Mycoplasma pneumoniae FH [2]; sparfloxacin 0.0313 μg/mL, initial 10^6 CFU/mL, triplicate, mean
  CFU/mL after treatment, killing assay: 2.33×10^6 CFU/mL
Mycoplasma pneumoniae FH [2]; sparfloxacin 0.0625 μg/mL, initial 10^6 CFU/mL, triplicate, mean
  CFU/mL after treatment, killing assay: 1.39×10^5 ^a CFU/mL
Mycoplasma pneumoniae FH [2]; sparfloxacin 0.125 μg/mL, initial 10^6 CFU/mL, triplicate, mean
  CFU/mL after treatment, killing assay: 1.30×10^4 ^a CFU/mL
Mycoplasma pneumoniae FH [2]; sparfloxacin 0.25 μg/mL, initial 10^6 CFU/mL, triplicate, mean
  CFU/mL after treatment, killing assay: 5.50×10^3 ^a CFU/mL
[3]; p < 0.005
  Concentration with statistically significant result, killing assay: 0.0625 µg/mL
[3]; sparfloxacin 0.0156 μg/mL
  Titre (CFU/mL), killing assay: 2.52×10^6 CFU/mL
[3]; sparfloxacin 0.0313 μg/mL
  Titre (CFU/mL), killing assay: 1.80×10^6 CFU/mL
[3]; sparfloxacin 0.0625 μg/mL
  Titre (CFU/mL), killing assay: 8.41×10^5 ^a CFU/mL
[3]; sparfloxacin 0.125 μg/mL
  Titre (CFU/mL), killing assay: 1.52×10^5 ^a CFU/mL
[3]; sparfloxacin 0.25 μg/mL
  Titre (CFU/mL), killing assay: 1.81×10^4 ^a CFU/mL
[4]; p < 0.005
  Concentration with statistically significant result, killing assay: 0.0625 µg/mL
[4]; sparfloxacin 0.0156 μg/mL
  Titre (CFU/mL), killing assay: 2.66×10^6 CFU/mL
[4]; sparfloxacin 0.0313 μg/mL
  Titre (CFU/mL), killing assay: 1.86×10^6 CFU/mL
[4]; sparfloxacin 0.0625 μg/mL
  Titre (CFU/mL), killing assay: 3.88×10^5 ^a CFU/mL
[4]; sparfloxacin 0.125 μg/mL
  Titre (CFU/mL), killing assay: 2.17×10^4 ^a CFU/mL
[4]; sparfloxacin 0.25 μg/mL
  Titre (CFU/mL), killing assay: 2.90×10^3 ^a CFU/mL
[5]; p < 0.005
  Concentration with statistically significant result, killing assay: 0.0625 µg/mL
[5]; sparfloxacin 0.0156 μg/mL
  Titre (CFU/mL), killing assay: 2.95×10^6 CFU/mL
[5]; sparfloxacin 0.0313 μg/mL
  Titre (CFU/mL), killing assay: 2.02×10^6 CFU/mL
[5]; sparfloxacin 0.0625 μg/mL
  Titre (CFU/mL), killing assay: 8.00×10^5 ^a CFU/mL
[5]; sparfloxacin 0.125 μg/mL
  Titre (CFU/mL), killing assay: 1.99×10^5 ^a CFU/mL
[5]; sparfloxacin 0.25 μg/mL
  Titre (CFU/mL), killing assay: 3.24×10^4 ^a CFU/mL
[6]; p < 0.005
  Concentration with statistically significant result, killing assay: 0.0625 µg/mL
[6]; sparfloxacin 0.0156 μg/mL
  Titre (CFU/mL), killing assay: 3.57×10^6 CFU/mL
[6]; sparfloxacin 0.0313 μg/mL
  Titre (CFU/mL), killing assay: 2.26×10^6 CFU/mL
[6]; sparfloxacin 0.0625 μg/mL
  Titre (CFU/mL), killing assay: 8.73×10^5 ^a CFU/mL
[6]; sparfloxacin 0.125 μg/mL
  Titre (CFU/mL), killing assay: 1.31×10^5 ^a CFU/mL
[6]; sparfloxacin 0.25 μg/mL
  Titre (CFU/mL), killing assay: 1.12×10^4 ^a CFU/mL
[7]; [15]
  Concentration that completely attenuated the growth: 0.25 µg/mL
[8]; [15]
  Concentration that completely attenuated the growth: 0.25 µg/mL
[9]; [15]
  Concentration that completely attenuated the growth: 0.25 µg/mL
Mycoplasma pneumoniae FH [10]
  Concentration giving complete repression of the growth, colorimetric assay: higher than 0.0625 μg/mL
Mycoplasma pneumoniae FH [11]; crystal violet, absorbance 550 nm
  Concentration giving complete repression of the growth, biofilm assay: > 0.25 µg/mL

## H-KKKKKKKKKGGGLLALLALLA-NH2 [Block]
[1]; strain M129-B7, biofilm assay, 16 μmol/L
  Biofilm formation at 16 μmol/L: enhancement of biofilm formation
[1]; strain M129-B7, up to 30 μmol/L, Shirley-Williams test
  Effect in the biofilm assay: no statistically significant effect
[1]; strain printed B129-B7, biofilm assay, 30 μmol/L
  Biofilm amount at 30 μmol/L: no effect
[12]
  PI fluorescence compared with live Mp without peptide: highest fluorescence
Staphylococcus aureus
  MIC, Gram-positive, S. a.: 12.5 µM
[13]
  MIC, Gram-positive, S. e: 6.25 µM
Escherichia coli
  MIC, Gram-negative, E. c.: 6.25 µM
Pseudomonas aeruginosa
  MIC, Gram-negative, P. a.: 6.25 µM
Mycoplasma pneumoniae FH [2]; 30 μmol/L AMP, 3 days, Welch's t test, p < 0.005
  Killing assay result compared with saline: significant difference
Mycoplasma pneumoniae FH [2]; 30 μmol/L AMP, 3 days, initial 10^6 CFU/mL, triplicate, mean, saline 3.59×10^6
  Cell numbers (CFU/mL) after treatment with antimicrobial peptides, killing assay: 5.91×10^5 CFU/mL
[3]; AMP 30 μmol/L, saline 3.48×10^6
  Titre (CFU/mL), killing assay: 2.32×10^5 ^b CFU/mL
[4]; AMP 30 μmol/L, saline 4.19×10^6
  Titre (CFU/mL), killing assay: 4.30×10^5 ^b CFU/mL
[5]; AMP 30 μmol/L, saline 3.62×10^6
  Titre (CFU/mL), killing assay: 3.89×10^5 ^b CFU/mL
[6]; AMP 30 μmol/L, saline 3.79×10^6
  Titre (CFU/mL), killing assay: 4.84×10^5 ^b CFU/mL
[14]
  Concentration of anti-Mp effect indicated by the biofilm assay: > 30 µmol/L
[7]; biofilm assay, 16 μmol/L
  Biofilm formation at 16 μmol/L: enhancement of biofilm formation
[7]; biofilm assay, 30 μmol/L
  Biofilm amount at 30 μmol/L: slight drop in the biofilm amount
[7]; [16]
  Effect in the biofilm assay: no statistically significant effect
[8]; biofilm assay, 16 μmol/L
  Biofilm formation at 16 μmol/L: enhancement of biofilm formation
[8]; biofilm assay, 30 μmol/L
  Biofilm amount at 30 μmol/L: slight drop in the biofilm amount
[8]; [16]
  Effect in the biofilm assay: no statistically significant effect
[9]; biofilm assay, 16 μmol/L
  Biofilm formation at 16 μmol/L: enhancement of biofilm formation
[9]; biofilm assay, 30 μmol/L
  Biofilm amount at 30 μmol/L: no effect
[9]; [16]
  Effect in the biofilm assay: no statistically significant effect
Mycoplasma pneumoniae FH [11]; p < 0.005, Shirley-Williams test
  Concentration with statistically significant effect in the biofilm assay: 30 µmol/L
